Patent US20240287046A1, “COMPOUNDS AND RADIOLIGANDS FOR TARGETING NEUROTENSIN RECEPTOR AND USES THEREOF” (Full-Life Technologies HK Limited, priority 2022, published 2024)

How the values were obtained:
HT-29 tumor-bearing mice = experiment: Biodistribution of radionuclide labeled complexes in HT-29 tumor-bearing mice; type: in vivo, BALB/c nude mice
Experimental: The BALB/c nude mice (Charles River, Beijing) were utilized to establish the xenografted model for biodistribution study. All animal care and experimental procedure were performed by following the animal protocols approved by the ethics committee of China Institute of Radiation Protection.
Briefly, each mouse was inoculated with approximately 4×10^6 ASPC-1 cells (human pancreatic cancer cell line) or HT-29 cells (human colorectal adenocarcinoma cell line) expressing human NTSR-1 by subcutaneous injection at rear flank. After inoculation, the xenografted tumors were allowed to grow for ˜2-4 weeks till the tumor weight reached to about 0.05 to 0.50 g (0.20 g in average).
Biodistribution studies were performed by administrating the radionuclide labeled test compound at a dose of ˜30-50 μCi (100 μL in 0.9% NaCl, ˜1.11-1.85 MBq, with specific activity 30-250 μCi/nmol) to each animal through tail vein injection.
At different time points after the administration, the mice treated with each compound were euthanized. The tissues and organs of the animals in each group were collected, excised, weighed, and analyzed in a PerkinElmer 2480 WIZARD2γ counter, and the percent injected dose (% ID) and % ID/g of each organ or tissue were calculated.

[1] = test system: ASPC-1 tumor-bearing mice; experiment: SPECT/CT imaging of ^177Lu-labeled complexes; type: in vivo; conditions: over 72 hours
Experimental: ASPC-1 tumor-bearing mice were IV-injected with about 120 μCi of ^177Lu-labeled complexes, then anesthetized under 2% isoflurane/oxygen gas and placed on the scanner. SPECT/CT images were acquired in three bed positions for 30 min using a MILabs SPECT scanner. Whole-body SPECT images were acquired at 1 h, 4 h, 24 and 72 h after injecting the radiotracers.

% ID/g (1 h) Femur (HT-29 tumor-bearing mice; Femur, 1 h): 1.95 ± 1.15 % ID/g | % ID/g (4 h) Femur (HT-29 tumor-bearing mice; Femur, 4 h): 0.56 ± 0.23 % ID/g | % ID/g (24 h) Femur (HT-29 tumor-bearing mice; Femur, 24 h): 0.11 ± 0.02 % ID/g | % ID/g (72 h) Femur (HT-29 tumor-bearing mice; Femur, 72 h): 0.06 ± 0.03 % ID/g | % ID/g (120 h) Femur (HT-29 tumor-bearing mice; Femur, 120 h): 0.07 ± 0.02 % ID/g | % ID/g (1 h) Heart (HT-29 tumor-bearing mice; Heart, 1 h): 5.28 ± 0.74 % ID/g | % ID/g (4 h) Heart (HT-29 tumor-bearing mice; Heart, 4 h): 1.31 ± 0.53 % ID/g | % ID/g (24 h) Heart (HT-29 tumor-bearing mice; Heart, 24 h): 0.16 ± 0.01 % ID/g | % ID/g (72 h) Heart (HT-29 tumor-bearing mice; Heart, 72 h): 0.11 ± 0.01 % ID/g | % ID/g (120 h) Heart (HT-29 tumor-bearing mice; Heart, 120 h): 0.05 ± 0.03 % ID/g | % ID/g (1 h) Intestine (HT-29 tumor-bearing mice; Intestine, 1 h): 2.84 ± 1.07 % ID/g | % ID/g (4 h) Intestine (HT-29 tumor-bearing mice; Intestine, 4 h): 1.71 ± 0.23 % ID/g | % ID/g (24 h) Intestine (HT-29 tumor-bearing mice; Intestine, 24 h): 0.66 ± 0.29 % ID/g | % ID/g (72 h) Intestine (HT-29 tumor-bearing mice; Intestine, 72 h): 0.29 ± 0.23 % ID/g | % ID/g (120 h) Intestine (HT-29 tumor-bearing mice; Intestine, 120 h): 0.19 ± 0.01 % ID/g | % ID/g (1 h) Kidney (HT-29 tumor-bearing mice; Kidney, 1 h): 4.41 ± 2.41 % ID/g | % ID/g (4 h) Kidney (HT-29 tumor-bearing mice; Kidney, 4 h): 1.73 ± 0.79 % ID/g | % ID/g (24 h) Kidney (HT-29 tumor-bearing mice; Kidney, 24 h): 1.43 ± 1.04 % ID/g | % ID/g (72 h) Kidney (HT-29 tumor-bearing mice; Kidney, 72 h): 0.7 ± 0.3 % ID/g | % ID/g (120 h) Kidney (HT-29 tumor-bearing mice; Kidney, 120 h): 0.4 ± 0.15 % ID/g | % ID/g (1 h) Liver (HT-29 tumor-bearing mice; Liver, 1 h): 4.35 ± 1.78 % ID/g | % ID/g (4 h) Liver (HT-29 tumor-bearing mice; Liver, 4 h): 2.59 ± 1.08 % ID/g | % ID/g (24 h) Liver (HT-29 tumor-bearing mice; Liver, 24 h): 0.85 ± 0.38 % ID/g | % ID/g (72 h) Liver (HT-29 tumor-bearing mice; Liver, 72 h): 0.57 ± 0.21 % ID/g | % ID/g (120 h) Liver (HT-29 tumor-bearing mice; Liver, 120 h): 0.24 ± 0.04 % ID/g | % ID/g (1 h) Lung (HT-29 tumor-bearing mice; Lung, 1 h): 4.47 ± 3.31 % ID/g | % ID/g (4 h) Lung (HT-29 tumor-bearing mice; Lung, 4 h): 1.81 ± 0.77 % ID/g | % ID/g (24 h) Lung (HT-29 tumor-bearing mice; Lung, 24 h): 0.35 ± 0.14 % ID/g | % ID/g (72 h) Lung (HT-29 tumor-bearing mice; Lung, 72 h): 0.23 ± 0.01 % ID/g | % ID/g (120 h) Lung (HT-29 tumor-bearing mice; Lung, 120 h): 0.07 ± 0.02 % ID/g | % ID/g (1 h) Muscle (HT-29 tumor-bearing mice; Muscle, 1 h): 2.2 ± 1.08 % ID/g | % ID/g (4 h) Muscle (HT-29 tumor-bearing mice; Muscle, 4 h): 0.44 ± 0.26 % ID/g | % ID/g (24 h) Muscle (HT-29 tumor-bearing mice; Muscle, 24 h): 0.05 ± 0.03 % ID/g | % ID/g (72 h) Muscle (HT-29 tumor-bearing mice; Muscle, 72 h): 0.03 ± 0.01 % ID/g | % ID/g (120 h) Muscle (HT-29 tumor-bearing mice; Muscle, 120 h): 0.04 ± 0.02 % ID/g | % ID/g (1 h) Pancreas (HT-29 tumor-bearing mice; Pancreas, 1 h): 1.48 ± 0.29 % ID/g | % ID/g (4 h) Pancreas (HT-29 tumor-bearing mice; Pancreas, 4 h): 0.38 ± 0.17 % ID/g | % ID/g (24 h) Pancreas (HT-29 tumor-bearing mice; Pancreas, 24 h): 0.07 ± 0.04 % ID/g | % ID/g (72 h) Pancreas (HT-29 tumor-bearing mice; Pancreas, 72 h): 0.03 ± 0.01 % ID/g | % ID/g (120 h) Pancreas (HT-29 tumor-bearing mice; Pancreas, 120 h): 0.04 ± 0.01 % ID/g | % ID/g (1 h) Spleen (HT-29 tumor-bearing mice; Spleen, 1 h): 1.73 ± 1.08 % ID/g | % ID/g (4 h) Spleen (HT-29 tumor-bearing mice; Spleen, 4 h): 0.71 ± 0.41 % ID/g | % ID/g (24 h) Spleen (HT-29 tumor-bearing mice; Spleen, 24 h): 0.14 ± 0.03 % ID/g | % ID/g (72 h) Spleen (HT-29 tumor-bearing mice; Spleen, 72 h): 0.08 ± 0.01 % ID/g | % ID/g (120 h) Spleen (HT-29 tumor-bearing mice; Spleen, 120 h): 0.1 ± 0.04 % ID/g | % ID/g (1 h) Stomach (HT-29 tumor-bearing mice; Stomach, 1 h): 2.58 ± 1.00 % ID/g | % ID/g (4 h) Stomach (HT-29 tumor-bearing mice; Stomach, 4 h): 0.76 ± 0.38 % ID/g | % ID/g (24 h) Stomach (HT-29 tumor-bearing mice; Stomach, 24 h): 0.14 ± 0.03 % ID/g | % ID/g (72 h) Stomach (HT-29 tumor-bearing mice; Stomach, 72 h): 0.06 ± 0.01 % ID/g | % ID/g (120 h) Stomach (HT-29 tumor-bearing mice; Stomach, 120 h): 0.061 ± 0.03 % ID/g | % ID/g (1 h) Tumor (HT-29 tumor-bearing mice; Tumor, 1 h): 17.04 ± 5.68 % ID/g | % ID/g (4 h) Tumor (HT-29 tumor-bearing mice; Tumor, 4 h): 16.52 ± 12.39 % ID/g | % ID/g (24 h) Tumor (HT-29 tumor-bearing mice; Tumor, 24 h): 20.35 ± 2.62 % ID/g | % ID/g (72 h) Tumor (HT-29 tumor-bearing mice; Tumor, 72 h): 9.3 ± 7.53 % ID/g | % ID/g (120 h) Tumor (HT-29 tumor-bearing mice; Tumor, 120 h): 6.42 ± 3.46 % ID/g | clearance from other organs or tissues (SPECT/CT) [1]: rapid clearance | retention in tumors (SPECT/CT) [1]: sustained retention in tumors
SMILES: COc1cccc(OC)c1-c1cc(C(=O)NC2(C(=O)O)C3CC4CC(C3)CC2C4)nn1-c1ccc(OCCCN(C)CCCN(C)C(=O)CN2CCN(CC(=O)[O-])CCN(CC(=O)[O-])CCN(CC(=O)[O-])CC2)cc1C(C)C.[177Lu+3] (stereo not drawn) [^177Lu-I-7]
